Reference: patent US7972800B2, “Screening method for binding property or signal transduction alterations” (Takeda Pharmaceutical Company Limited, priority 2003, dated 2011)

Experiments:
[1] = system: bladder (micturition) of conscious rats; experiment: Cystometry in conscious rats with intravesical infusion; assay type: in vivo, rat; details: female SD rats, 1 mM CuCl2 in saline infused into the bladder
Protocol: Female SD rats of 9-10 weeks old were anaesthetized by intramuscular injection with 0.1 ml/100 g of a solution obtained by mixing ketamine (50 mg/mL) and xylazine (20 mg/mL) in 5:1. The bladder was then exposed via a midline incision and a hole was made with a 20-G needle to insert a polyethylene tube (PE-50), which tube was sutured to the bladder with cotton thread. The polyethylene tube cannulated into the bladder was cut at a length of about 1 cm, which was connected to a silicon tube (No. 00) and exposed to the dorsum through the skin. The animals were housed in individual cages until they were used for the experiments.
One day after the surgery, the animal was anesthetized with halothane and placed in Ballman cages under restricted conditions. After a three-way cock was connected to the tube cannulated into the bladder, a saline infusion tube was connected to a cystometry tube (resistance to infusion). An electronic scale was placed under the Ballman cages and the micturition volume was measured at the same time. When the anesthetic completely worn off, the infusion of saline into the bladder commenced and the bladder pressure and micturition volume were recorded on a personal computer via an A-D converter (MP-100, BIOPAC Systems) and analyzed using a dedicated software (AcqKnowledge, BIOPAC Systems).
Saline was infused into the bladder at the rate of 6 ml/hr and the infusion was continued for 1 or 2 hours until stable micturition was recorded. In order to enhance the permeability of a drug into the bladder, protamine sulfate (10 mg/mL in PBS) was infused into the bladder for an hour (Chuang Y, et. al., 2003, Urology, 63, 664-670). […] Then, saline was reinfused into the bladder and micturition was recorded at least 2 hours until protamine was completely washed off. […] Mean micturition intervals during from about 30 minutes to about 60 minutes after starting the infusion of CuCl2 were calculated to find a ratio to mean micturition intervals for about 30 minutes before the infusion of CuCl2 (% of the pre-value).

human GPR39 = target: T1, human GPR39 (Homo sapiens, UniProt O43194); assay type: cell-based; parameters: expressed in transfected cells; host or cells: CHO cells, vector pAKKO-111H; details: FLIPR, Fluo-3AM; metal salt added, 10-300 μM (FIGS. 1-4)
T1 sequence (O43194 1-453): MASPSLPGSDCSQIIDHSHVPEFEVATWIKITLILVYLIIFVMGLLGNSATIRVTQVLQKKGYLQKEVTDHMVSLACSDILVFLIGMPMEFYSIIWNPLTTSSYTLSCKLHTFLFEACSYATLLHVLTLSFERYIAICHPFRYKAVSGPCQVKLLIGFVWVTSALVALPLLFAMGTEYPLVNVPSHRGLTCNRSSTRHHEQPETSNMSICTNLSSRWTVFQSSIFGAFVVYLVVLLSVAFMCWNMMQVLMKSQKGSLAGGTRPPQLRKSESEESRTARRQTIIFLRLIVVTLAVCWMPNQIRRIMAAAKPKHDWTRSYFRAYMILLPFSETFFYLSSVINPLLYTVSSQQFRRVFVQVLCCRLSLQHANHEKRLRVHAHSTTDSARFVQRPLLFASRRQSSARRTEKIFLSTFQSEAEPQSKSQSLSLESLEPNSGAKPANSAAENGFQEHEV
Protocol: The human GPR39-GFP expression vector-transfected CHO cell line produced in EXAMPLE 1 (CHO/hGPR39-GFP) was diluted in 3×10^4 cells/100 μl. The dilution was dispensed onto a Black walled 96-well plate (Costar) in 100 μl each per well, followed by incubation overnight in a CO2 incubator. Changes in intracellular calcium levels were determined by the following method using FLIPR (Molecular Device). In 21 μl of DMSO (DOJIN), 50 μg of Fluo-3AM (DOJIN) was dissolved and an equal volume of 20% Pluronic acid (Molecular Probes) was added to the solution. After mixing them, the resulting mixture was added to 10.6 ml of assay buffer [prepared by adding 20 ml of 1M HEPES (pH 7.4) (DOJIN) to HBSS (Invitrogen Corp.) and further adding to the solution 10 ml of a solution mixture, which mixture was prepared by dissolving 710 mg of Probenecid (Sigma) in 5 ml of 1N NaOH and then adding thereto 5 ml of the HBSS/HEPES solution above] supplemented with 105 μl of fetal calf serum to prepare a fluorescent dye solution. The medium in the cell plate was removed. Immediately thereafter, the fluorescent dye solution was dispensed in 100 μl each/well and the cells were incubated in a CO2 incubator for an hour so that the fluorescent dye was taken up into the cells. The cells after the incubation were washed with the assay buffer described above and set on FLIPR. Compounds of metal elements to be added to the cells were diluted to the respective concentration with the assay buffer. The dilutions were dispensed onto plates for ligands and set on FLIPR. Following the pre-treatment above, changes in intracellular calcium levels after addition of metal elements were determined by FLIPR to study agonist activities.

Structure (SMILES)	basal pressure (bladder) [1]	ratio of mean micturition intervals (% of the pre-value) ([1]; about 30-60 min after start vs about 30 min before, pre-value made 100%, n=4)	intracellular calcium levels of CHO/hGPR39-GFP (human GPR39)
[Cl][Cu][Cl] [copper chloride]	not affected	42.2±6.1%	dose-dependently increased
[Cl][Ni][Cl] [nickel chloride]			dose-dependently increased
